The values below come from ChEMBL document CHEMBL4828719, “H2dpa derivatives containing pentadentate ligands: An acyclic adjuvant potentiates meropenem activity in vitro and in vivo against metallo-β-lactamase-producing Enterobacterales” (Eur J Med Chem, 2021).

Converted amounts (≈) assume the structure as drawn. The source made the active and inactive calls.

In general, IC50 refers to the point on the concentration scale where inhibition reaches its midpoint. As a reminder, the MIC is the smallest concentration in the dilution series that meets the test's criterion for growth inhibition.

Test [1] concerns Escherichia coli. Nature of the test: Synergistic antibacterial activity against VIM-1 producing Escherichia coli DH5alpha assessed as fractional inhibitory concentration index incubated for 16 to 20 hrs in presence of meropenem by checkerboard assay. The format is functional, DH5[alpha]. As to conditions: time 16-20 hrs.
A short description of test [2]: Zinc chelation-dependent inhibition of IMP-4 (unknown origin) expressed in Escherichia coli BL21 (DE3) using imipenem as substrate preincubated with enzyme for 5 to 10 mins followed by substrate addition.
Test [3] deals with Escherichia coli. As to the kind of experiment: Antibacterial activity against VIM-1 producing Escherichia coli DH5alpha assessed as decrease in bacterial growth incubated for 16 to 20 hrs by CLSI based microdilution method. The format is functional. To be noted: DH5[alpha], time 16-20 hrs.
Test [4] has as its system Escherichia coli. Nature of the test: Antibiotic adjuvant activity against VIM-1 producing Escherichia coli DH5alpha assessed as potentiation of meropenem-induced antibacterial activity incubated for 16 to 20 hrs by agar disc diffusion assay. As to conditions: DH5[alpha], time 16-20 hrs. The format is functional, organism-based. In general terms: A growth-free zone around the sample is the usual read-out of agar diffusion tests.

Test [5] has as its system Escherichia coli. Nature of the test: Synergistic antibacterial activity against NDM-1 producing Escherichia coli DH5alpha assessed as fractional inhibitory concentration index incubated for 16 to 20 hrs in presence of meropenem by checkerboard assay. The format is functional, DH5[alpha]. As to conditions: time 16-20 hrs.
A short description of test [6]: Zinc chelation-dependent inhibition of VIM-2 (unknown origin) expressed in Escherichia coli BL21 (DE3) using nitrocefin as substrate preincubated with enzyme for 5 to 10 mins followed by substrate addition.
The test system of test [7] is Escherichia coli. As to the kind of experiment: Antibiotic adjuvant activity against IMP-4 producing Escherichia coli DH5alpha assessed as potentiation of meropenem-induced antibacterial activity incubated for 16 to 20 hrs by agar disc diffusion assay. The format is functional, organism-based. To be noted: DH5[alpha], time 16-20 hrs.
The subject of test [8] is Escherichia coli. As to the kind of experiment: Antibiotic adjuvant activity against NDM-1 producing Escherichia coli DH5alpha assessed as potentiation of meropenem-induced antibacterial activity incubated for 16 to 20 hrs by agar disc diffusion assay. The format is functional, organism-based. To be noted: DH5[alpha], time 16-20 hrs.
Test [9] can be described thus: Zinc chelation-dependent inhibition of NDM-1 (unknown origin) expressed in Escherichia coli BL21 (DE3) using meropenem as substrate preincubated with enzyme for 5 to 10 mins followed by substrate addition.
Test [10] relates to Escherichia coli. Nature of the test: Antibacterial activity against NDM-1 producing Escherichia coli DH5alpha assessed as decrease in bacterial growth incubated for 16 to 20 hrs by CLSI based microdilution method. The format is functional. As to conditions: DH5[alpha], time 16-20 hrs. For orientation: Broth dilution looks for growth in wells or tubes with falling amounts of substance.

Test [11] deals with Escherichia coli. Nature of the test: Antibacterial activity against IMP-4 producing Escherichia coli DH5alpha assessed as decrease in bacterial growth incubated for 16 to 20 hrs by CLSI based microdilution method. To be noted: DH5[alpha], time 16-20 hrs. The format is functional.
Test [12] deals with Escherichia coli. Nature of the test: Synergistic antibacterial activity against IMP-4 producing Escherichia coli DH5alpha assessed as fractional inhibitory concentration index incubated for 16 to 20 hrs in presence of meropenem by checkerboard assay. To be noted: time 16-20 hrs. The format is functional, DH5[alpha].
Test [13] is described as follows: Zinc chelation-dependent inhibition of IMP-1 (unknown origin) expressed in Escherichia coli DH5 alpha using imipenem as substrate preincubated with enzyme for 5 mins followed by substrate addition in the presence of zinc sulfate.
Test [14] can be described thus: Zinc chelation-dependent inhibition of NDM-1 (unknown origin) expressed in Escherichia coli DH5 alpha using meropenem as substrate preincubated with enzyme for 5 mins followed by substrate addition in the presence of zinc sulfate.
Test [15] can be described thus: Zinc chelation-dependent inhibition of VIM-2 (unknown origin) expressed in Escherichia coli DH5 alpha using nitrocefin as substrate preincubated with enzyme for 5 mins followed by substrate addition in presence of zinc sulfate.

`O=C(O)c1cccc(CNCc2cccc(C(=O)O)n2)n1`: the “fractional inhibitory concentration index (FICI)” value in the test on Escherichia coli [1] was found to be 0.07; in the test with Escherichia coli [5], 0.07; in the test on Escherichia coli [12] it was 0.14. Also, the IC50 in [2] was 1040 nM; in test [6], 1050 nM; in test [9] it was 1540 nM. Further, the MIC in the test with Escherichia coli [3], in the test with Escherichia coli [10] and in the test with Escherichia coli [11] was 128 µg/mL (≈ 446 µM) each time. The result in the test on Escherichia coli [4], with Escherichia coli [7] and with Escherichia coli [8] was Active.
`N[C@@H](CN[C@@H](CN[C@@H](CC(=O)O)C(=O)O)C(=O)O)C(=O)O`: the values for the half-inhibitory concentration (IC50) in [2], in test [6] and in test [9] were 9600 nM, greater than 200000 nM and 4000 nM, respectively.
`O=C(O)CN(CCN(CC(=O)O)CC(=O)O)CC(=O)O` [EDETIC ACID]: the concentration for half-maximal inhibition (IC50) in [2] is 12500 nM; in [6], greater than 200000 nM; in test [9] it was 1750 nM. For the same compound, the result in test [13], in test [14] and in [15] was inactive.
In the case of `O=C(O)CN(Cc1cccc(C(=O)O)n1)Cc1cccc(C(=O)O)n1`, the entries for the “fractional inhibitory concentration index (FICI)” value with Escherichia coli [1], with Escherichia coli [5] and in the test with Escherichia coli [12] were 0.07, 0.07 and 0.14, respectively. The concentration for half-maximal inhibition (IC50) is 3880 nM in test [2], 1530 nM in test [6] and 1670 nM in [9]. In addition, the MIC in the test on Escherichia coli [3], in the test on Escherichia coli [10] and in the test on Escherichia coli [11] was 128 µg/mL (≈ 371 µM) in each case. For the same compound, the result in the test on Escherichia coli [4], with Escherichia coli [7] and in the test on Escherichia coli [8] was Active.
For `O=C(O)c1cccc(CN(CCP(=O)(O)O)Cc2cccc(C(=O)O)n2)n1`, the results for the “fractional inhibitory concentration index (FICI)” value with Escherichia coli [1], in the test on Escherichia coli [5] and in the test with Escherichia coli [12] were 0.07, 0.07 and 0.14, respectively. For the same compound, the values for the concentration for half-maximal inhibition (IC50) in test [2], in test [6] and in test [9] were 4840 nM, 2030 nM and 1650 nM, respectively. Besides, the minimal inhibitory concentration (MIC) with Escherichia coli [3], in the test with Escherichia coli [10] and in the test with Escherichia coli [11] was 128 µg/mL (≈ 324 µM) in each case. Moreover, the outcome in the test with Escherichia coli [4], in the test on Escherichia coli [7] and with Escherichia coli [8] was Active.
On to `C[C@H](CS)C(=O)N1CCC[C@H]1C(=O)O` [CAPTOPRIL], for which the outcome in [13], in [14] and in test [15] was Active.
